Where two headings read alike, the source gives them in different places.
Experiments:
PARLΔ77 [1] = target: T1, PARLΔ77 (Homo sapiens, UniProt Q9H300); assay: Multiplex substrate profiling by mass spectrometry (MSP-MS), PARLΔ77 in proteoliposomes; format: biochemical; settings: PARLΔ77 1 μM in PL containing PC, PE and CL, peptides 0.5 μM each, pH 7.0, without DDM, LC-MS/MS, quadruplicate; for FC_60min (fold change of cleavage product, Annotated_Sequence): 60 vs 0 min; for FC_240min (fold change of cleavage product, Annotated_Sequence): 240 vs 0 min
T1 construct: GFP-hexahistidine (behind a TEV cleavage site) (C, cleaved yes); made in house; host or cells: Pichia pastoris
T1 sequence (Q9H300 78-379): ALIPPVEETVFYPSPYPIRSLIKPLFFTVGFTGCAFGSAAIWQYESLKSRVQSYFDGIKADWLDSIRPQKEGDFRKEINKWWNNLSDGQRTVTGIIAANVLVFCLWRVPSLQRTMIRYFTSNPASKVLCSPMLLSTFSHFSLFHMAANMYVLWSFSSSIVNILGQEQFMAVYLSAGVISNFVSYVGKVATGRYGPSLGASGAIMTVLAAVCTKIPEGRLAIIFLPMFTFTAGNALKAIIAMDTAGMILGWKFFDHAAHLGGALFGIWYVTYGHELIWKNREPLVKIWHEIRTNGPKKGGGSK
Protocol: (§1) Multiplex substrate profiling by mass spectrometry (MSP-MS) assays was performed in quadruplicate. In total, 1 μM of PARLΔ77 was incubated with an equimolar mixture of 228 synthetic tetradecapeptides at a final concentration of 0.5 μM for each peptide in 50 mM Tris-HCl pH 7.0, 150 mM NaCl, 10% glycerol, with or without 0.1% DDM. The sequence of each peptide is listed in Supplementary Data File. These peptides have been validated as substrates for a wide variety of proteolytic enzymes (PMID 23023596, 24073241, 25944934) including bacterial rhomboid proteases (30705125). For each assay, 20 μl of the reaction mixture was removed after 0, 60, and 240 min of incubation. Enzyme activity was quenched by adding GuHCl (MP Biomedicals) to a final concentration of 6.4 M, and samples were immediately stored at –80 °C. All samples were desalted using C18 spin columns and dried by vacuum centrifugation.
(§2) Approximately 2 μg of peptides was injected into a Q-Exactive Mass Spectrometer (Thermo) equipped with an Ultimate 3000 HPLC. Peptides were separated by reverse-phase chromatography on a C18 column (1.7 μm bead size, 75 μm × 25 cm, 65 °C) at a flow rate of 300 nl/min using a 60-min linear gradient from 5% to 30% B, with solvent A: 0.1% formic acid in water and solvent B: 0.1% formic acid in acetonitrile. Survey scans were recorded over a 150–2000 m/z range (70,000 resolutions at 200 m/z, AGC target 3 × 10^6, 100 ms maximum). MS/MS was performed in data-dependent acquisition mode with HCD fragmentation (28 normalized collision energy) on the 12 most intense precursor ions (17,500 resolutions at 200 m/z, AGC target 1 × 10^5, 50 ms maximum, dynamic exclusion 20 s).
(§3) Data was processed using PEAKS 8.5 (Bioinformatics Solutions Inc). MS^2 data were searched against the 228 tetradecapeptide library sequences with decoy sequences in reverse order. A precursor tolerance of 20 ppm and 0.01 Da for MS^2 fragments was defined. No protease digestion and modification were specified. Data were filtered to 1% peptide-level false discovery rates with the target-decoy strategy. Peptides were quantified with label-free quantification and data are normalized by medians and filtered by 0.3 peptide quality. Missing and zero values are imputed with random normally distributed numbers in the range of the average of smallest 5% of the data ± SD. Cleaved sequences were defined as peptide products that increase by a fold change of >8 and q value <0.05 (by Student t test) between 0 min and 240 min. IceLogo software was used for visualization of amino-acid frequency surrounding the cleavage sites. Amino acids that were most frequently observed (above axis) and least frequently observed (below axis) from P4 to P4ʹ positions were illustrated. Norleucine (Nle) was represented as “n” in the reported profiles. Mass spectrometry data and searching results have been deposited in MassIVE with accession number, MSV000085295.

PARLΔ77 [2] = target: T1, PARLΔ77; assay: Multiplex substrate profiling by mass spectrometry (MSP-MS), PARLΔ77 in DDM; format: biochemical; settings: PARLΔ77 1 μM, 0.1% DDM, peptides 0.5 μM each, LC-MS/MS, quadruplicate; for FC_60min (fold change of cleavage product, Annotated_Sequence): pH 7.0, 60 vs 0 min; for FC_240min (fold change of cleavage product, Annotated_Sequence): pH 7.0, 240 vs 0 min
Protocol: as §1, §2, §3

PARLΔ77 [3] = target: T1, PARLΔ77; assay: Lipid effect on PARLΔ77 cleavage of FRET-PINK1(70-134); format: biochemical; settings: vs no lipid, N = 4
Text: Lipids are known to influence membrane protein function ([29]). In mitochondria, for example, increased CL amounts are observed during mitochondrial stress, which influences protein function at the molecular level ([30]). Therefore, we assessed the effect of the three primary lipids present in the IMM, namely CL, phosphatidylcholine (POPC), and phosphatidylethanolamine (POPE) on PARLΔ77 activity with the FRET-PINK^70–134 substrate (Fig. 1D) ([31]). The lipid-free conditions were used as a baseline and consisted of PARLΔ77 reconstituted in detergent (DDM) micelles, while all lipid conditions consisted of a mixed detergent-lipid micelle system. First we assess the effect of different classes of lipids. […] In order to precisely determine the optimal concentration of CL for PARL activity, the initial velocities of PARL-mediated cleavage of FRET-PINK1^70–134 were measured in the presence of increasing concentrations of CL. […] Therefore, CL was included in all subsequent protein preparations of detergent-solubilized PARL at the last purification step.
Figure S5. The dependence of PA R LΔ77activity on CL concentration. The initial velocities of PA R LΔ77weremeasuredin the presence of different molar ratios of CL using FRET-PINK170-134 substrate. One-way ANOVA with multiple comparisons was performed between the no-lipid condition and each molar ratio of CL:protein to determine if differences observed were significant. A total of five experimental replicates performed in duplicate were used for data analysis (N = 5). Individual data points (black dots) are indicated on the bar graphs, representing the mean ±SEM
(1 picture or pasted object on this page, not shown here)

preferred substrates = settings: cited from earlier work
Protocol: The bacterial rhomboid proteases from Haemophilus influenzae (HiGlpG) and P. stuartii (AarA) cleave at a rate of roughly two per minute for their preferred substrates in DDM, while the E. coli rhomboid protease GlpG cleaves slowly in DDM, much like PARL, at a rate of approximately six per hour and with a rate of 2.5 min^−1 in PLs ([26], [34], [35]).

[4] = lipid at molar ratio 50:1, mixed detergent (DDM)-lipid micelles

AETSIKVFMPYYGH [TDP91, synthetic tetradecapeptide of the 228-peptide library]
FC_60min (fold change of cleavage product, Annotated_Sequence) (PARLΔ77 [1]): 43.5042 | FC_240min (fold change of cleavage product, Annotated_Sequence) (PARLΔ77 [1]): 295.878

AMTDRGWYLAIQAV [TDP15, synthetic tetradecapeptide of the 228-peptide library]
FC_60min (fold change of cleavage product, Annotated_Sequence) (PARLΔ77 [2]; TDP160: product INDFLVR.T): 247.32 | FC_240min (fold change of cleavage product, Annotated_Sequence) (PARLΔ77 [2]; TDP160: product INDFLVR.T): 689.515

GPKLTYDFWIQNLP [TDP89, synthetic tetradecapeptide of the 228-peptide library]
FC_60min (fold change of cleavage product, Annotated_Sequence) (PARLΔ77 [2]; TDP160: product INDFLVR.T): 270.23 | FC_240min (fold change of cleavage product, Annotated_Sequence) (PARLΔ77 [2]; TDP160: product INDFLVR.T): 1077.04

GQYPMFVKISTTHW [TDP96, synthetic tetradecapeptide of the 228-peptide library]
FC_60min (fold change of cleavage product, Annotated_Sequence) (PARLΔ77 [1]): 35.4935 | FC_240min (fold change of cleavage product, Annotated_Sequence) (PARLΔ77 [1]): 328.605

INDFLVRTWKMPGL [TDP160, synthetic tetradecapeptide of the 228-peptide library]
FC_60min (fold change of cleavage product, Annotated_Sequence) (PARLΔ77 [2]; TDP160: product INDFLVR.T): 264.961 | FC_240min (fold change of cleavage product, Annotated_Sequence) (PARLΔ77 [2]; TDP160: product INDFLVR.T): 895.528 | FC_60min (fold change of cleavage product, Annotated_Sequence) (PARLΔ77 [2]; product F.LVRTWKLPGL): 150.552 | FC_240min (fold change of cleavage product, Annotated_Sequence) (PARLΔ77 [2]; product F.LVRTWKLPGL): 507.811

MHSPWTMANFLRGP [TDP94, synthetic tetradecapeptide of the 228-peptide library]
FC_60min (fold change of cleavage product, Annotated_Sequence) (PARLΔ77 [1]): 254.488 | FC_240min (fold change of cleavage product, Annotated_Sequence) (PARLΔ77 [1]): 1890.88 | FC_60min (fold change of cleavage product, Annotated_Sequence) (PARLΔ77 [2]; TDP160: product INDFLVR.T): 682.585 | FC_240min (fold change of cleavage product, Annotated_Sequence) (PARLΔ77 [2]; TDP160: product INDFLVR.T): 2284.43

NVDWTAPQLIEYLD [TDP138, synthetic tetradecapeptide of the 228-peptide library]
FC_60min (fold change of cleavage product, Annotated_Sequence) (PARLΔ77 [1]): 42.87 | FC_240min (fold change of cleavage product, Annotated_Sequence) (PARLΔ77 [1]): 40.3813

QAVRPNGMYWHYLM [TDP216, synthetic tetradecapeptide of the 228-peptide library]
FC_60min (fold change of cleavage product, Annotated_Sequence) (PARLΔ77 [1]): 43.2174 | FC_240min (fold change of cleavage product, Annotated_Sequence) (PARLΔ77 [1]): 200.338

cardiolipin [CL]
effect on PARL activity (PARLΔ77 [3]; [4]): significant increase in PARL activity

phosphatidylethanolamine [POPE]
effect on PARL activity (PARLΔ77 [3]; [4]): did not significantly increase PARL activity | effect on PARL activity (PARLΔ77 [3]; lipid at molar ratio 100:1, mixed detergent (DDM)-lipid micelles): did not significantly increase PARL activity

B1: GlpG: E. coli rhomboid protease (protein, UniProt P09391 1-276, looked up)
Rhomboid protease GlpG: MLMITSFANPRVAQAFVDYMATQGVILTIQQHNQSDVWLADESQAERVRAELARFLENPADPRYLAASWQAGHTGSGLHYRRYPFFAALRERAGPVTWVMMIACVVVFIAMQILGDQEVMLWLAWPFDPTLKFEFWRYFTHALMHFSLMHILFNLLWWWYLGGAVEKRLGSGKLIVITLISALLSGYVQQKFSGPWFGGLSGVVYALMGYVWLRGERDPQSGIYLQRGLIIFALIWIVAGWFDLFGMSMANGAHIAGLAVGLAMAFVDSLNARKRK
cleavage rate (preferred substrates; in DDM): approximately six | cleavage rate (preferred substrates; in PLs): 2.5 min⁻¹

B2: AarA: bacterial rhomboid protease from P. stuartii (protein, UniProt P46116 1-281, looked up)
Rhomboid protease AarA: MAEQQNPFSIKSKARFSLGAIALTLTLVLLNIAVYFYQIVFASPLDSRESNLILFGANIYQLSLTGDWWRYPISMMLHSNGTHLAFNCLALFVIGIGCERAYGKFKLLAIYIISGIGAALFSAYWQYYEISNSDLWTDSTVYITIGVGASGAIMGIAAASVIYLIKVVINKPNPHPVIQRRQKYQLYNLIAMIALTLINGLQSGVDNAAHIGGAIIGALISIAYILVPHKLRVANLCITVIAASLLTMMIYLYSFSTNKHLLEEREFIYQEVYTELADANQ
cleavage rate (preferred substrates; preferred substrates, in DDM): roughly two

B3: HiGlpG: bacterial rhomboid protease from Haemophilus influenzae (protein, UniProt P44783 1-192, looked up)
Rhomboid protease GlpG: MKNFLAQQGKITLILTALCVLIYLAQQLGFEDDIMYLMHYPAYEEQDSEVWRYISHTLVHLSNLHILFNLSWFFIFGGMIERTFGSVKLLMLYVVASAITGYVQNYVSGPAFFGLSGVVYAVLGYVFIRDKLNHHLFDLPEGFFTMLLVGIALGFISPLFGVEMGNAAHISGLIVGLIWGFIDSKLRKNSLE
cleavage rate (preferred substrates; preferred substrates, in DDM): roughly two

From publication PMC7966987, “Insights into the catalytic properties of the mitochondrial rhomboid protease PARL” (The Journal of Biological Chemistry, 2021)
